Results published in ChEMBL document CHEMBL3217459, “3-Diarylethyne quinazolinones: a new class of senescence inducers” (Medchemcomm, 2013).
The source made the active and inactive calls. The calls are words filed in the database; no cut-off is given here.

Key:
MCF7 [1] = test: Cell cycle arrest in human MCF7 cells assessed as accumulation at G2/M phase at 4 uM after 24 hrs using propidium iodide staining by FACS analysis (reference value: 19%); format: functional
MCF7 [2] = test: Cell cycle arrest in human MCF7 cells assessed as accumulation at G1 phase at 4 uM after 24 hrs using propidium iodide staining by FACS analysis (reference value: 70%); format: functional
MCF7 [3] = test: Cytotoxicity against human MCF7 cells assessed as cell viability at 2 uM after 48 hrs by MTT assay; format: functional
MCF7 [4] = test: Cell cycle arrest in human MCF7 cells assessed as accumulation at S phase at 4 uM after 24 hrs using propidium iodide staining by FACS analysis (reference value: 11%); format: functional
MCF7 [5] = test: Cytotoxicity against human MCF7 cells assessed as cell viability at 4 uM after 48 hrs by MTT assay; format: functional
HCT-116 [6] = test: Induction of senescence in human HCT116 cells assessed as increase in p16 expression at 4 uM after 24 hrs by Western blot analysis; format: functional, cell-based
COLO 205 = test: Cytotoxicity against human COLO205 cells assessed as cell viability after 48 hrs by MTT assay; format: functional, cell-based; conditions: COLO 205, 48 h
SW116 = test: Induction of senescence in human SW116 cells assessed as increase in p21 expression at 4 uM after 24 hrs by Western blot analysis; format: functional, cell-based
MCF7 [7] = test: Cytotoxicity against human MCF7 cells assessed as cell viability after 48 hrs by MTT assay; format: functional, cell-based; conditions: MCF7, 48 h
MCF7 [8] = test: Induction of DNA damage in human MCF7 cells assessed as increase in TRF1 level measured at 4 uM after 24 hrs by Western blot analysis; format: functional, cell-based
[9] = Cytotoxicity against human MIAPaCa2 cells assessed as cell viability after 48 hrs by MTT assay; format: functional, cell-based; conditions: MIA PaCa-2, 48 h
[10] = target: Telomerase reverse transcriptase (Homo sapiens) (UniProt O14746); test: Inhibition of telomerase activity in human MCF7 cells assessed as un-repairable DNA damage at 4 uM after 24 hrs; format: cell-based
Telomerase reverse transcriptase (Homo sapiens), sequence (O14746 whole entry): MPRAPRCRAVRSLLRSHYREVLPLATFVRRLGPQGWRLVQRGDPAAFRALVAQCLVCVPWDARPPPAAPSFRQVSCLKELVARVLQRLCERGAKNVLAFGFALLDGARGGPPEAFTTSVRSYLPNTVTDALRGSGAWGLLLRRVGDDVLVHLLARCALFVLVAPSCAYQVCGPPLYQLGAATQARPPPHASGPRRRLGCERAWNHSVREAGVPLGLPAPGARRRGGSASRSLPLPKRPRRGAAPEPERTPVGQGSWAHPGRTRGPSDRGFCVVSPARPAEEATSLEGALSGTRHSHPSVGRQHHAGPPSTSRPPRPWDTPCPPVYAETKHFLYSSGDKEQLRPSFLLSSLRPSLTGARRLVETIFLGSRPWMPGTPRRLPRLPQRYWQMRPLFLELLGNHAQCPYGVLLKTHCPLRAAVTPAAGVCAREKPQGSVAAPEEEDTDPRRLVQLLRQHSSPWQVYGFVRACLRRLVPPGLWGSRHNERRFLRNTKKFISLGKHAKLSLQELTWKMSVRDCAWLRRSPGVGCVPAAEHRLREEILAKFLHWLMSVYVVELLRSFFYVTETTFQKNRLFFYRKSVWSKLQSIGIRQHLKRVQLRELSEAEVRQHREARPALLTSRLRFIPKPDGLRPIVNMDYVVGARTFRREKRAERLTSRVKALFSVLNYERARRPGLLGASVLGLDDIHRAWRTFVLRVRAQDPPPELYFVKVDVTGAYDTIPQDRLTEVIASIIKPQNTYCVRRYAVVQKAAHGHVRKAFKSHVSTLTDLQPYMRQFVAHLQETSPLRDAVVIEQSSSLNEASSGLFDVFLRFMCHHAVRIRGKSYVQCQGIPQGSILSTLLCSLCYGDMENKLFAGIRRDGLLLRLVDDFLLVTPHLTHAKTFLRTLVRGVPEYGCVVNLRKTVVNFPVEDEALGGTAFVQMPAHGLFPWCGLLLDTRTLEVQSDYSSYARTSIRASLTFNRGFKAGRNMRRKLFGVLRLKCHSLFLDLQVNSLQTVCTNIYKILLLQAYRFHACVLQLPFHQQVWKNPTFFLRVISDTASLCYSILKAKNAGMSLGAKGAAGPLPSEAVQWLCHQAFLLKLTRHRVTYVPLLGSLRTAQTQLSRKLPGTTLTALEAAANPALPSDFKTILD

MCF7 [11] = test: Induction of DNA damage in human MCF7 cells assessed as decrease in TRF2 level measured at 4 uM after 24 hrs by Western blot analysis; format: functional, cell-based
MCF7 [12] = test: Induction of DNA damage in human MCF7 cells assessed as increase in POT1 level measured at 4 uM after 24 hrs by Western blot analysis; format: functional, cell-based
MCF7 [13] = test: Induction of senescence in human MCF7 cells assessed as increase in p16 expression at 4 uM after 24 hrs by Western blot analysis; format: functional, cell-based
MDA-MB-231 = test: Cytotoxicity against human MDA-MB-231 cells assessed as cell viability after 48 hrs by MTT assay; format: functional, cell-based; conditions: MDA-MB-231, 48 h
MCF7 (Homo sapiens) = test: Induction of senescence in human MCF7 cells assessed as increase in p16 expression at 4 uM after 24 hrs by Western blot analysis
MCF7 [14] = test: Induction of senescence in human MCF7 cells assessed as decrease in SKP2 expression at 4 uM after 24 hrs by Western blot analysis; format: functional, cell-based
MCF7 [15] = test: Induction of senescence in human MCF7 cells assessed as increase in p21 expression at 4 uM after 24 hrs by Western blot analysis; format: functional, cell-based
[16] = Cytotoxicity against human MCF10A cells assessed as cell viability after 48 hrs by MTT assay; format: cell-based; conditions: MCF-10A
MCF7 [17] = test: Induction of DNA damage in human MCF7 cells assessed as increase in gamma H2AX level measured at 4 uM after 24 hrs by Western blot analysis; format: functional, cell-based
HCT-116 [18] = test: Induction of senescence in human HCT116 cells assessed as increase in p21 expression at 4 uM after 24 hrs by Western blot analysis; format: functional, cell-based
A549 = test: Cytotoxicity against human A549 cells assessed as cell viability after 48 hrs by MTT assay; format: functional, cell-based; conditions: A549, 48 h
MCF7 [19] = test: Induction of senescence in human MCF7 cells assessed as increase in p53 expression at 4 uM after 24 hrs by Western blot analysis; format: functional, cell-based

Row | Compound | Activity (MCF7 [1]) | Activity (MCF7 [2]) | OD (MCF7 [3]) | Activity (MCF7 [4]) | OD (MCF7 [5]) | further results
1 | Cc1cc(C#Cc2ccccc2)ccc1-n1c(/C=C/c2ccc(O)c([N+](=O)[O-])c2)nc2ccccc2c1=O | 20% | 73% | 0.9 | 7% | 0.51 | –
2 | COc1ccc2cc(C#Cc3ccc(-n4c(/C=C/c5ccc([N+](=O)[O-])o5)nc5ccccc5c4=O)c(C)c3)ccc2c1 | 39% | 49% | 0.66 | 12% | 0.58 | –
3 | COc1ccc(/C=C/c2nc3ccccc3c(=O)n2-c2ccc(C#Cc3ccc(C(C)(C)C)cc3)cc2C)cc1OC | 6% | 91% | 0.41 | 3% | 0.27 | Activity (HCT-116 [6]): Active; IC50 (COLO 205): 5.68 µM; Activity (SW116): Active; IC50 (MCF7 [7]): 2.72 µM; Activity (MCF7 [8]): Active; IC50 [9]: 5.89 µM; inhibition [10]: Active; inhibition (MCF7 [11]): Active; Activity (MCF7 [12]): Active; Activity (MCF7 [13]): Active; IC50 (MDA-MB-231): 5.84 µM; Activity (MCF7 (Homo sapiens)): Active; inhibition (MCF7 [14]): Active; Activity (MCF7 [15]): Active; IC50 [16]: 13 µM; Activity (MCF7 [17]): Active; Activity (HCT-116 [18]): Active; IC50 (A549): 6.15 µM; Activity (MCF7 [19]): Active
4 | Cc1cc(C#Cc2ccc(C(C)(C)C)cc2)ccc1-n1c(/C=C/c2ccc3c(c2)OCO3)nc2ccccc2c1=O | 23% | 67% | 0.67 | 10% | 0.52 | –
5 | Cc1cc(C#Cc2ccc(C(C)(C)C)cc2)ccc1-n1c(/C=C/c2ccc(Cl)cc2)nc2ccccc2c1=O | – | – | 0.71 | – | 0.59 | –
6 | COc1cc(/C=C/c2nc3ccccc3c(=O)n2-c2ccc(C#Cc3ccccc3)cc2C)cc(OC)c1 | 19% | 73% | 0.93 | 8% | 0.61 | –
7 | Cc1cc(C#Cc2ccccc2)ccc1-n1c(/C=C/c2cc(O)cc(O)c2)nc2ccccc2c1=O | 10% | 83% | 0.92 | 7% | 0.73 | –
8 | Cc1cc(C#Cc2ccccc2)ccc1-n1c(/C=C/c2ccc(O)cc2)nc2ccccc2c1=O | 18% | 75% | 0.87 | 7% | 0.58 | –
9 | COc1ccc2cc(C#Cc3ccc(-n4c(/C=C/c5ccc6ccccc6c5)nc5ccccc5c4=O)c(C)c3)ccc2c1 | 22% | 69% | 0.81 | 9% | 0.46 | –
10 | Cc1cc(C#Cc2ccccc2)ccc1-n1c(/C=C/c2ccc3ccccc3c2)nc2ccccc2c1=O | 24% | 68% | 0.97 | 8% | 0.43 | –
11 | Cc1cc(C#Cc2ccc(C(C)(C)C)cc2)ccc1-n1c(/C=C/c2ccc3ccccc3c2)nc2ccccc2c1=O | 20% | 72% | 0.92 | 8% | 0.61 | –
12 | COc1ccc2cc(C#Cc3ccc(-n4c(/C=C/c5ccc(F)cc5)nc5ccccc5c4=O)c(C)c3)ccc2c1 | 18% | 74% | 0.67 | 8% | 0.57 | –
13 | Cc1ccccc1/C=C/c1nc2ccccc2c(=O)n1-c1ccc(C#Cc2ccccc2)cc1C | 6% | 88% | 0.78 | 6% | 0.51 | –
14 | COc1ccc2cc(C#Cc3ccc(-n4c(/C=C/c5ccnc6ccccc56)nc5ccccc5c4=O)c(C)c3)ccc2c1 | 19% | 74% | 0.76 | 7% | 0.5 | –
15 | Cc1cc(C#Cc2ccc(C(C)(C)C)cc2)ccc1-n1c(/C=C/c2ccc(O)cc2)nc2ccccc2c1=O | 19% | 74% | 0.71 | 7% | 0.52 | –
16 | COc1ccc2cc(C#Cc3ccc(-n4c(/C=C/c5ccc(OC)c(OC)c5)nc5ccccc5c4=O)c(C)c3)ccc2c1 | 23% | 70% | 0.7 | 7% | 0.6 | –
17 | COc1ccc2cc(C#Cc3ccc(-n4c(/C=C/c5cc(OC)c(OC)c(OC)c5)nc5ccccc5c4=O)c(C)c3)ccc2c1 | 21% | 72% | 0.57 | 7% | 0.58 | –
18 | Cc1cc(C#Cc2ccccc2)ccc1-n1c(/C=C/c2ccc([N+](=O)[O-])o2)nc2ccccc2c1=O | – | – | 0.88 | – | 0.37 | –
19 | Cc1cc(C#Cc2ccccc2)ccc1-n1c(/C=C/c2ccc(F)cc2)nc2ccccc2c1=O | 20% | 73% | 0.75 | 7% | 0.61 | –
20 | Cc1cc(C#Cc2ccc(C(C)(C)C)cc2)ccc1-n1c(/C=C/c2ccc([N+](=O)[O-])o2)nc2ccccc2c1=O | 17% | 77% | 0.7 | 6% | 0.4 | –
21 | Cc1cc(C#Cc2ccccc2)ccc1-n1c(/C=C/c2ccc(Cl)cc2)nc2ccccc2c1=O | 18% | 75% | 0.74 | 7% | 0.48 | –
22 | COc1cc(/C=C/c2nc3ccccc3c(=O)n2-c2ccc(C#Cc3ccccc3)cc2C)cc(OC)c1OC | 5% | 90% | 0.47 | 5% | 0.27 | Activity (HCT-116 [6]): Active; IC50 (COLO 205): 6.24 µM; Activity (SW116): Active; IC50 (MCF7 [7]): 2.46 µM; Activity (MCF7 [8]): Active; IC50 [9]: 6.01 µM; inhibition [10]: Active; inhibition (MCF7 [11]): Active; Activity (MCF7 [12]): Active; Activity (MCF7 [13]): Active; IC50 (MDA-MB-231): 5.56 µM; Activity (MCF7 (Homo sapiens)): Active; inhibition (MCF7 [14]): Active; Activity (MCF7 [15]): Active; IC50 [16]: 8 µM; Activity (MCF7 [17]): Active; Activity (HCT-116 [18]): Active; IC50 (A549): 6.54 µM; Activity (MCF7 [19]): Active
23 | COc1cc(/C=C/c2nc3ccccc3c(=O)n2-c2ccc(C#Cc3ccc(C(C)(C)C)cc3)cc2C)cc(OC)c1OC | 78% | 14% | 0.74 | 8% | 0.55 | –
24 | Cc1cc(C#Cc2ccc(C(C)(C)C)cc2)ccc1-n1c(/C=C/c2ccc([N+](=O)[O-])s2)nc2ccccc2c1=O | 24% | 68% | 0.54 | 8% | 0.25 | –
25 | Cc1cc(C#Cc2ccc(C(C)(C)C)cc2)ccc1-n1c(/C=C/c2cc(O)cc(O)c2)nc2ccccc2c1=O | 18% | 74% | 0.6 | 8% | 0.43 | –
26 | COc1ccc2cc(C#Cc3ccc(-n4c(/C=C/c5c(Cl)cccc5Cl)nc5ccccc5c4=O)c(C)c3)ccc2c1 | 24% | 68% | 0.77 | 8% | 0.63 | –
27 | COc1ccc(/C=C/c2nc3ccccc3c(=O)n2-c2ccc(C#Cc3ccccc3)cc2C)cc1 | 15% | 78% | 0.84 | 7% | 0.73 | –
